The target of one assay is RBP4 (Homo sapiens (Human), UniProt P02753). The assay is described as follows: Scintillation proximity RBP4 binding assay (SPA). Particulars: 10 nM 3H-Retinol, 50 nM biotinylated RBP4. Here is the method:
Scintillation Proximity RBP4 Binding Assay
Untagged human RBP4 purified from urine of tubular proteinuria patients was purchased from Fitzgerald Industries International. It was biotinylated using the EZ-Link Sulfo-NHS-LC-Biotinylation kit from Pierce following the manufacturer's recommendations. Binding experiments were performed in 96-well plates (OptiPlate, PerkinElmer) in a final assay volume of 100 μl per well in SPA buffer (1×PBS, pH 7.4, 1 mM EDTA, 0.1% BSA, 0.5% CHAPS). The reaction mix contained 10 nM ^3H-Retinol (48.7 Ci/mmol; PerkinElmer), 0.3 mg/well Streptavidin-PVT beads, 50 nM biotinylated RBP4 and a test compound. Nonspecific binding was determined in the presence of 20 μM of unlabeled retinol.
The reaction mix was assembled in the dark under dim red light. The plates were sealed with clear tape (TopSeal-A: 96-well microplate, PerkinElmer), wrapped in the aluminum foil, and allowed to equilibrate 6 hours at room temperature followed by overnight incubation at +4° C. Radiocounts were measured using a TopCount NXT counter (Packard Instrument Company).
A general note: Scintillation proximity formats need no separation of bound from free tracer.

Another assay has as its target RBP4-TTR interaction (Homo sapiens (Human), UniProt P02753). The assay is described as follows: TR-FRET (HTRF) assay for retinol-induced RBP4-TTR interaction. The format is biochemical. As to conditions: in the presence of 1 μM retinol; read-out: HTRF assay for antagonists of RBP4-TTR interaction: IC50. From the text: TR-FRET Assay for Retinol-Induced RBP4-TTR Interaction
Binding of a desired RBP4 antagonist displaces retinol and induces hindrance for RBP4-TTR interaction resulting in the decreased FRET signal (FIG. 7). Bacterially expressed MBP-RBP4 and untagged TTR were used in this assay. […] Following cell lysis, recombinant RBP4 was purified from the soluble fraction using the ACTA FPLC system (GE Healthcare) equipped with the 5-ml the MBP Trap HP column. Human untagged TTR was purchased from Calbiochem. Untagged TTR was labeled directly with Eu^3+ Cryptate-NHS using the HTRF Cryptate Labeling kit from CisBio following the manufacturer's recommendations. HTRF assay was performed in white low volume 384 well plates (Greiner-Bio) in a final assay volume of 16 μl per well. The reaction buffer contained 10 mM Tris-HCl pH 7.5, 1 mM DTT, 0.05% NP-40, 0.05% Prionex, 6% glycerol, and 400 mM KF. […] Titration of test compounds in this assay was conducted in the presence of 1 μM retinol. All reactions were assembled in the dark under dim red light and incubated overnight at +4° C. wrapped in aluminum foil. TR-FRET signal was measured in the SpectraMax M5e Multimode Plate Reader (Molecular Device). […] The TR-FRET signal was expressed as the ratio of fluorescence intensity: Flu665/Flu620×10,000.
On the technique in general: TR-FRET usually uses a lanthanide donor and a delayed reading to cut background.

One may read the IC50 as the concentration needed to halve the response being measured. For `COC(=O)N1CCc2[nH]nc(C(=O)N3CCC(c4cccc(F)c4C(F)(F)F)CC3)c2C1` [Compound 68], the IC50 on RBP4 was below 0.00137 µM; at RBP4-TTR interaction, 0.0362 µM.

(Values after patent US10407433B2, “Substituted 4-phenylpiperidines, their preparation and use” (The Trustees of Columbia University in the City of New York, priority 2014, dated 2019).)
